The source of these data is patent US20230144399A1, “QUINOLINE COMPOUNDS FOR THE TREATMENT AND PROPHYLAXIS OF HEPATITIS B VIRUS DISEASE” (Hoffmann-La Roche Inc., priority 2017, published 2023).

Broadly, the IC50 is the midpoint of a concentration-inhibition curve.

The subject of experiment [1] is HBV (extracellular HBsAg) in HBV-infected PHH. Description: Cryopreserved primary human hepatocytes (PHH) HBV infection assay. In kind it is cell-based. As to conditions: Hepatitis B virus, Hepatocyte, 216 h, 9 days post-compound treatment, extracellular HBsAg by CLIA. On the procedure:
This assay is used to confirm the anti-HBV effect of the compounds in HBV PHH infection assay. Cryopreserved PHH (BioreclamationIVT, Lot YJM) was thawed at 37° C. and gently transferred into pre-warmed InVitroGRO HT medium (BioreclamationIVT, Cat. S03317). The mixture was centrifuged at 70 relative centrifugal force (RCF) for 3 minutes at RT, and the supernatant was discarded. Pre-warmed InVitroGRO CP medium (BioreclamationIVT, Cat #S03316) was added to the cell pellet to gently re-suspend cells. The cells were seeded at the density of 5.8×10^4 cells per well to collagen I coated 96-well plate (Gibco, Cat. A1142803) with the InVitroGRO CP medium. All plates were incubated at 37° C. with 5% CO2 and 85% humidity.
At 20 hours after plating, the medium was changed to PHH culture medium (Dulbecco's Modified Eagle Medium (DMEM)/F12 (1:1) (Gibco, Cat. 11320-033), 10% fetal bovine serum (Gibco Cat. 10099141), 100 U/mL penicillin, 100 μg/mL streptomycin (Gibco, Cat. 151401-122), 5 ng/mL human epidermal growth factor (Invitrogen Cat. PHG0311L), 20 ng/mL dexamethasone (Sigma, Cat. D4902) and 250 ng/mL human recombinant insulin (Gibco, Cat. 12585-014)). And the cells were incubated at 37° C. with 5% CO2 and 85% humidity for 4 hours. The medium was then changed to pre-warmed PHH culture medium containing 4% polyethylene glycol (PEG) MW8000 (Sigma, Cat. P1458-50ML) and 1% DMSO (Sigma, Cat. D2650). 5.8×10^6 genomic equivalents of HBV were added into the medium.
At 24 hours post-infection, the cells were gently washed with PBS and refreshed with PHH culture medium supplemented with 1% DMSO, and 0.25 mg/mL Matrix gel (Corning, Cat. 356237) at 200 μL per well. All plates were immediately placed in at 37° C. CO2 incubator. 24 hours later, serial dilutions of compounds made with DMSO were further diluted with the same culture medium (PHH culture medium supplemented with 1% DMSO and 0.25 mg/mL Matrix gel as described above) before they were added to the cells to reach desired final compound concentrations and 1% DMSO concentration. The medium containing the compounds were refreshed every three days.
At 9 days post-compound treatment, extracellular HBsAg level were measured with Chemiluminescence Immuno Assay (CLIA) kit (Autobio, HBsAg Quantitative CLIA). Extracellular HBV DNA was extracted by MagNA Pure 96 system (Roche) and then determined by quantitative PCR with the following primers and probe: […]
HBsAg IC50 and HBV DNA IC50 values were derived from the dose-response curve using 4 parameter logistic curve fit method.

Experiment [2] relates to HBV cccDNA (HBeAg level) in HepDES19 cells. In words: Engineered HepDES19 primary screen assay (HBeAg as surrogate marker for cccDNA). In kind it is cell-based. As to conditions: Hepatitis B virus, HepDES19, 120 h, read-out: IC50 (HBeAg level, HepDES19 primary screen assay). An excerpt: The assay was employed to screen for novel cccDNA inhibitors. HepDES19 is a cccDNA-producing cell line. In this cell line, HBeAg in the cell culture supernatant as surrogate marker, as HBeAg production depends on cccDNA level and activity. HepDES19 is an engineered cell line which contains a 1.1 unit length HBV genome, and pgRNA transcription from the transgene is controlled by Tetracycline (Tet). In the absence of Tet, pgRNA transcription will be induced, but HBV e antigen (HBeAg) could not be produced from this pgRNA due to very short leader sequence before the HBeAg start codon and the start codon is disrupted. Only after cccDNA is formed, the missing leader sequence and start codon mutation would be restored from the 3′-terminal redundancy of pgRNA, and then HBeAg could be synthesized. Therefore, HBeAg could be used as a surrogate marker for cccDNA (Zhou, T. et al., Antiviral Res.(2006), 72(2), 116-124; Guo, H. et al., J. Virol. (2007), 81(22), 12472-12484).
HepDES19 cells were seeded at 2×10^6 cells per T150 flask and cultured with the culture medium (Dulbecco's Modified Eagle Medium: Nutrient Mixture F-12 [DMEM-F12, Gibco Cat. 11320-82], 10% Fetal Bovine Serum [FBS, Clontech Cat. 631101], 0.1 mM Non-Essential Amino Acids Solution [NEAA, Gibco Cat. 11140-050], 50 μg/mL Penicillin-Streptomycin [PS, Invitrogen Cat. 15140-163], 500 μg/mL Geneticin [G418, Invitrogen Cat. 10131-027]) containing 3 μg/mL Tet (Sigma, Cat. 87128) for 5 days. Cells were then seeded at 4×10^6 cells per T150 in the same culture medium as described above in the absence of Tet for 8 days. Cells were then harvested and frozen at density of 2×10^6 cells per mL. For compound testing, the frozen cells were thawed and seeded into 96-well plates at a density of 6×10^4 cells per well. At 24 hrs after seeding, half log serial dilutions of compounds made with Dimethyl sulfoxide (DMSO, Sigma, Cat. D2650) were further diluted with the same culture medium as described above before they were added to the cells to reach desired final compound concentrations and 1% DMSO concentration. Plates were then incubated at 37° C. for another 5 days before measurement of HBeAg level and cell viability. Intracellular HBeAg level were measured with enzyme-linked immunosorbent assay (ELISA) kit (Shanghai Kehua Diagnostic Medical Products Co., Ltd). Cell viability was assessed using Cell Counting Kit-8 (Donjindo, Cat. CK04-20). IC50 values were derived from the dose-response curve using 4 parameter logistic curve fit method.
The compounds of the present invention were tested for their capacity to inhibit extracellular HBeAg level as described herein.

Regarding `Cc1cc(-c2cccc(Br)c2)nc2cc(C(F)(F)F)ccc12` [Example 11, 2-(3-bromophenyl)-4-methyl-7-(trifluoromethyl)quinoline], the IC50 in experiment [1] stood at 1.66 µM; in experiment [2], 2.07 µM.
As for `COc1ccc(-c2ccc3cccc(Cl)c3n2)cc1C(F)(F)F` [Example 3, 8-chloro-2-[4-methoxy-3-(trifluoromethyl)phenyl]quinoline], the IC50 in experiment [1] was determined as 11.3 µM; in experiment [2], 0.141 µM.
`COc1cc2cccc(Cl)c2nc1-c1ccc(OCCO[C@H]2C[C@@H](C(=O)O)C2)cc1` [Example 15, Cis-3-[2-[4-(8-chloro-3-methoxy-2-quinolyl)phenoxy]ethoxy]cyclobutanecarboxylic acid]: the IC50 in experiment [2] stood at 2.53 µM.
Consider `O=C(O)COCCOc1ccc(-c2ccc3cccc(Cl)c3n2)cc1` [Example 2, 2-[2-[4-(8-chloro-2-quinolyl)phenoxy]ethoxy]acetic acid], for which the IC50 stood at 0.97 µM in experiment [1] and 0.233 µM in experiment [2].
With `O=C(O)C1CC(OCCOc2cc3c(Cl)ccc(Cl)c3nc2-c2ccc(O)cc2)C1` (stereo not shown) [Example 16, 3-[2-[[5,8-dichloro-2-(4-hydroxyphenyl)-3-quinolyl]oxy]ethoxy]cyclobutanecarboxlic acid], the IC50 in experiment [2] was determined as 3.62 µM.
Same read-out and setting: as for `COc1cc(-c2ccc(OCc3cccc(C(=O)O)c3)cc2)nc2c(Cl)cccc12` [Example 14, 3-[[4-(8-chloro-4-methoxy-2-quinolyl)phenoxy]methyl]benzoic acid], the figure is 1.85 µM; as for `OCCOc1ccc(-c2ccc3ccc(C(F)(F)F)cc3n2)cc1` [Example 8, 2-[4-[7-(trifluoromethyl)-2-quinolyl]phenoxy]ethanol], 18.5 µM.
For the compound `O=C(O)[C@H]1C[C@@H](OCCOc2ccc(-c3ccc4cccc(Cl)c4n3)cc2)C1` [Example 1, Cis-3-[2-[4-(8-chloro-2-quinolyl)phenoxy]ethoxy]cyclobutanecarboxylic acid], the half-inhibitory concentration (IC50) was 0.015 µM in experiment [1] and 0.008 µM in experiment [2].
Taken in the same sequence, the figures for `O=C(O)COCCOc1ccc(-c2ccc3cccc(Cl)c3n2)cc1C(F)(F)F` [Example 6, 2-[2-[4-(8-chloro-2-quinolyl)-2-(trifluoromethyl)phenoxy]ethoxy]acetic acid] were 8.35 µM and 0.537 µM.
The like results for `O=C(O)COCCOc1ccc(-c2cc(C(F)(F)F)c3cccc(Cl)c3n2)cc1` [Example 13, 2-[2-[4-[8-chloro-4-(trifluoromethyl)-2-quinolyl]phenoxy]ethoxy]acetic acid] were, in that order, 5.5 µM and 1.67 µM.
Taken in the same sequence, the figures for `OCCOc1ccc(-c2ccc3cccc(Cl)c3n2)cc1C(F)(F)F` [Example 4, 2-[4-(8-chloro-2-quinolyl)-2-(trifluoromethyl)phenoxy]ethanol] were 6.77 µM and 2.12 µM.
For `N#Cc1cc(OCCO[C@H]2C[C@@H](C(=O)O)C2)ccc1-c1ccc2cccc(Cl)c2n1` [Example 7, Cis-3-[2-[4-(8-chloro-2-quinolyl)-3-cyano-phenoxy]ethoxy]cyclobutanecarboxylic acid], the IC50 in experiment [2] was determined as 18.4 µM.
Regarding `O=C(O)[C@H]1C[C@@H](OCCOc2ccc(-c3ccc4cccc(Cl)c4n3)cc2C(F)(F)F)C1` [Example 5, Cis-3-[2-[4-(8-chloro-2-quinolyl)-2-(trifluoromethyl)phenoxy]ethoxy]cyclobutanecarboxylic acid], the IC50 in experiment [1] is 2.95 µM; in experiment [2], 3.91 µM.
For the compound `O=C(O)c1cc(-c2cccc(Br)c2)nc2cc(C(F)(F)F)ccc12` [Example 10, 2-(3-bromophenyl)-7-(trifluoromethyl)quinoline-4-carboxylic acid], the IC50 in experiment [2] was found to be 19.5 µM.
Take `COC(=O)[C@H]1C[C@@H](OCCOc2ccc(-c3ccc4ccc(C(F)(F)F)cc4n3)cc2)C1` [Example 9, Cis-methyl 3-[2-[4-[7-(trifluoromethyl)-2-quinolyl]phenoxy]ethoxy]cyclobutanecarboxylate]: in experiment [2], the IC50 stood at 17.8 µM.
With `O=C(O)C1CC(OCCOc2ccc(-c3cc(C(F)(F)F)c4cccc(Cl)c4n3)cc2)C1` (stereo not shown) [Example 12, 3-[2-[4-[8-chloro-4-(trifluoromethyl)-2-quinolyl]phenoxy]ethoxy]cyclobutanecarboxylic acid], the IC50 in experiment [1] is 3.31 µM; in experiment [2], 0.515 µM.
